Measured values: publication PMC10147923, “Pain-causing stinging nettle toxins target TMEM233 to modulate NaV1.7 function” (Nature Communications, 2023)
Several values for one entry are separate records, joined by “and”; a condition that tells them apart may be missing. Equal entries are not always repeated. Where two headings read alike, the source gives them in different places. Positions of bridges follow the written chain, without caps; N, C: chain ends. Residues, ends and D or L forms follow the SMILES beside them.

Key:
[1] = NMR of 15N-labelled ExTxA with dodecylphosphocholine micelles; assay type: binding; settings: 1H-15N TROSY, 30 µM peptide, 20 mM Tris pH 8, 50 mM NaCl, 10% DPC, 298 K
Experimental: For NMR analysis, lyophilized ^15N-labelled ExTxA was resuspended either in 40% deuterated acetonitrile or buffer containing 20 mM Tris pH 8, 50 mM NaCl, 10% (w/v) dodecylphosphocholine (DPC) and 5% D2O. ^1H-^15N transverse relaxation optimized spectroscopy (TROSY) spectra were acquired for the peptide samples (30 µM) on a Bruker Avance 900 MHz NMR spectrometer equipped with a triple resonance cryogenic probe at 298 K. The spectra were processed using TOPSPIN v4.1.4 software (Bruker, Massachusetts, USA).

hNaV1.2 = assay: Persistent current, HEK293-hNaV1.2/β1; assay type: cell-based, human; settings: ExTxA 1 µM; individual cells
hNaV1.5 = assay: Persistent current, HEK293-hNaV1.5/β1; assay type: cell-based, human; settings: ExTxA 1 µM
[2] = tested on: total NaV current in wild-type DRG neurons; assay: Persistent NaV current, wild-type littermate DRG neurons; assay type: cell-based, mouse; settings: ExTxA 30 nM; wildtype; mean ± SEM, n = 6
wild-type C57BL/6 mice [3] = assay: Nocifensive behaviors after intraplantar injection, wild-type mice; assay type: in vivo, mouse; settings: wt
Experimental: (§1) Nocifensive responses to intraplantar administration of ExTxA (5–10 nM) were assessed as previously described. In brief, ExTxA was diluted in sterile saline/0.1% BSA and administered by an intraplantar injection (40 μL) into a single hind paw of Tmem233^Cre/Cre, NaV1.7^Advill and wild-type littermate controls. Pain behaviors, consisting of paw licks or flinches, were counted from video recordings by a blinded investigator for up to 60 min following injection.

Cos-1 cells = assay: Currents in untransfected Cos-1 cells; assay type: cell-based; settings: ExTxA 1 µM, mean ± SEM, n = 6
Experimental: Whole-cell patch clamp experiments involving HEK293, COS-1, CHO, ND7/23, F11, SH-SY5Y and TE-671 cells were performed on a QPatch II automated electrophysiology platform (Sophion Bioscience, Ballerup, Denmark) as previously described. Cells at approximately 70–80% confluency were harvested from T75 flasks using TrypLE Express at 37 °C for 2–5 min and resuspended in DMEM with 25 mM HEPES (Sigma-Aldrich, NSW, Australia), 100 U/mL Penicillin-Streptomycin (Gibco) and 40 µg/mL trypsin inhibitor from Glycine max (soybean) (Sigma Aldrich) prior to recovery on a QStirrer (Sophion) for 30 min. 16-channel patch plates with a patch hole diameter of 1 μm and resistance of 2 ± 0.02 MΩ were used. Cell positioning and sealing parameters were as follows: positioning pressure −60 mbar, minimum seal resistance 0.1 GΩ, holding potential −100 mV, holding pressure −20 mbar. Whole-cell currents were filtered at 5 kHz and acquired at 25 kHz. Series resistance compensation was used and set to 70%.

NaV1.7/TMEM233 [4] = biological target: T1, NaV1.7/TMEM233 (Homo sapiens, UniProt B4DJY2+Q15858); assay type: cell-based
Experimental: Current-voltage (IV) curves were determined in HEK-NaV1.7 cells, in the absence and presence of TMEM233, from a series of step pulses (500 ms) ranging from −110 to +55 mV (5 mV increments, repetition interval 5 s) before and after incubation with ExTxA (1 μM) from a holding potential of −90 mV. Currents were converted to conductance (G) using G = I/(V − Vrev), with Vrev being the reversal potential, plotted against voltage and fitted with a Boltzmann equation to obtain GV (conductance-voltage) curves. Voltage dependence of steady-state fast inactivation was determined by a subsequent 10 ms pulse to −20 mV immediately following the 500 ms depolarization step detailed above to assess the available non-inactivated channels.

NaV1.7/TMEM233 [5] = biological target: T1, NaV1.7/TMEM233; assay type: cell-based; remark: listed apart in the source
wild-type C57BL/6 mice [6] = settings: cited from earlier work
hNaV1.3 = assay: Persistent current, HEK293-hNaV1.3/β1; assay type: cell-based, human; settings: ExTxA 1 µM
[7] = tested on: Tmem233Cre/Cre knockout mice; assay: Nocifensive behaviors after intraplantar injection, Tmem233Cre/Cre mice; assay type: in vivo, mouse
Experimental: as §1

[8] = tested on: NaV currents in SH-SY5Y cells; assay: Persistent current, SH-SY5Y cells; assay type: cell-based, human; settings: ExTxA 1 µM
hNaV1.7 = assay: Persistent current, CHO hNaV1.7, no β subunit; assay type: cell-based, human; settings: ExTxA 1 µM
hNaV1.8 = assay: Persistent current, CHO-hNaV1.8/β3; assay type: cell-based, human; settings: ExTxA 1 µM
[9] = individual cells, paired with buffer

Structure (SMILES): CC[C@H](C)[C@@H]1NC(=O)[C@H](CCCNC(=N)N)NC(=O)[C@H](Cc2ccccc2)NC(=O)[C@H](CC(C)C)NC(=O)[C@H](CO)NC(=O)[C@@H]2CSSC[C@@H]3NC(=O)[C@H]([C@@H](C)O)NC(=O)[C@H](CSSC[C@H](NC(=O)[C@H](CCCNC(=N)N)NC(=O)[C@@H]4CCCN4C(=O)[C@@H](N)CC(C)C)C(=O)N[C@@H](CC(=O)O)C(=O)N[C@@H](CO)C(=O)N4CCC[C@H]4C(=O)N[C@@H](Cc4ccccc4)C(=O)N2)NC(=O)[C@H](CCCCN)NC(=O)[C@H](CC(=O)O)NC(=O)CNC(=O)[C@H](CSSC[C@@H](C(=O)N[C@H](C(=O)N2CCC[C@H]2C(=O)N[C@@H](CC(=O)O)C(=O)N[C@H](C(=O)O)C(C)C)C(C)C)NC(=O)[C@H](CC(C)C)NC(=O)CNC(=O)[C@H](Cc2ccccc2)NC(=O)[C@H]([C@@H](C)CC)NC(=O)[C@@H]2CCCN2C(=O)[C@H](CC(C)C)NC(=O)[C@@H]2CCCN2C(=O)[C@H](C(C)C)NC3=O)NC(=O)[C@H](CC(C)C)NC(=O)CNC1=O [ExTxA, excelsatoxin A] (H-LPRCDSPFCSLFRIGLCGDKCTCVPLPIFGLCVPDV-OH; disulfide 4-21, 9-23, 17-32)
- association with dodecylphosphocholine micelles [1]: associates with dodecylphosphocholine micelles
- persistent current (I40 ms/Ipeak) (hNaV1.2): -0.01884 and -0.01572 and 0.004985 and 0.03852 and -0.01184 and -0.02181 and 0.005193 and -0.01291 and 0.01563 and -0.00224 and -0.00414
- persistent current (I40 ms/Ipeak) (hNaV1.5; individual cells): 0.001512 and 0.003695 and 0.000623 and -0.00019 and 0.001997 and -0.00321 and -0.00096 and -7.2e-5 and 0.000901 and 0.000208 and 0.000397
- Δ persistent current (I40 ms/Ipeak; buffer cf. ExTxA) (hNaV1.5; mean): 0.0004 ± 0.0005 and 0.0003926
- ExTxA-induced persistent current (I40ms/Ipeak; nA) in DRG neurons [2]: 0.573 ± 0.086
- cumulative flinches (60 min) (wild-type C57BL/6 mice [3]; i.pl. ExTxA 10 nM, 40 μL, mean, n = 4): 319.3 ± 21.9 and 319.3
- cumulative flinches (60 min) (wild-type C57BL/6 mice [3]; i.pl. ExTxA 10 nM, individual animals): 318 and 332 and 366 and 261
- ExTxA-induced pain behaviours (cumulative paw licks and flinches over 40 min) (wild-type C57BL/6 mice [3]; i.pl. ExTxA 10 nM, mean ± SEM, n = 17): 234.2 ± 27.7
- nocifensive behaviors, 0-40 min combined (Fig. 3g) (wild-type C57BL/6 mice [3]; 0-40 min, individual animals, one line each (n = 17)): 186 and 191 and 216 and 226 and 100 and 220 and 228 and 281 and 150 and 168 and 177 and 96 and 381 and 537 and 153
- nocifensive behaviors, 0-40 min combined, mean (Fig. 3g) (wild-type C57BL/6 mice [3]; 0-40 min, mean, n = 17): 234.2
- ExTxA-induced persistent current (Cos-1 cells): -2.019 ± 5.908 pA
- depolarizing shift in the voltage-dependence of fast inactivation (NaV1.7/TMEM233 [4]): 18.0 mV
- hyperpolarizing shift in the voltage-dependence of activation (NaV1.7/TMEM233 [4]): 11.6 mV
- V50 of Activation (NaV1.7/TMEM233 [4]; ExTxA 1 µM, NaV1.7/TMEM233, mean ± SEM, n = 7, control -24.31 ± 1.11): -35.92 ± 1.00 mV
- V50 of Inactivation (NaV1.7/TMEM233 [4]; ExTxA 1 µM, NaV1.7/TMEM233, mean ± SEM, n = 8, control -67.77 ± 1.12): -49.80 ± 3.20 mV
- V50 of Activation, mean of differences (B - A) (NaV1.7/TMEM233 [4]; ExTxA vs. buffer, paired t test, 7 pairs): -11.61
- V50 of Inactivation, mean of differences (B - A) (NaV1.7/TMEM233 [4]; ExTxA vs. buffer, paired t test, 8 pairs): 17.97
- V50 of Activation (NaV1.7/TMEM233 [4]; [9]): -34.91 and -38.74 and -38.17 and -35.28 and -37.07 and -36.44 and -30.84
- V50 of Inactivation (NaV1.7/TMEM233 [4]; [9]): -45.67 and -44.27 and -43.05 and -47.34 and -66.38 and -46.52 and -43.25 and -61.92
- Best-fit parameter Bottom (NaV1.7/TMEM233 [5]): 0.0729
- Best-fit parameter Hill slope (NaV1.7/TMEM233 [5]): 1.156
- Best-fit parameter Top (NaV1.7/TMEM233 [5]): 0.7692
- Top (NaV1.7/TMEM233 [5]): 0.7845
- persistent current, Predicted (LS) mean diff. (NaV1.7/TMEM233 [5]): -0.5401
- potency with TMEM233 versus PRRT2 or TRARG1 (NaV1.7/TMEM233 [5]): significantly more potent when co-expressed with TMEM233
- effect on inactivation, toxin in extracellular solution (NaV1.7/TMEM233 [5]; ExTxA 100 nM in ECS): robustly inhibited inactivation
- effect on inactivation, toxin in intracellular solution (NaV1.7/TMEM233 [5]; ExTxA 100 nM in ICS): did not affect inactivation
- Difference between means (D - C), TMEM233 minus control (NaV1.7/TMEM233 [5]; ExTxA 1 µM): -1468 ± 228.9 pA
- LogEC50 (NaV1.7/TMEM233 [5]; Nav1.7/TMEM233, 95% CI -8.367 to -8.102, Fig 4g): -8.24
- HillSlope (NaV1.7/TMEM233 [5]; Nav1.7/TMEM233, Fig 4g): 0.9284
- pain behavior after intraplantar administration in mice (wild-type C57BL/6 mice [6]): elicits spontaneous pain behaviors and an axon reflex flare following intraplantar administration in mice
- persistent current (I40 ms/Ipeak) (hNaV1.3; individual cells): 0.0261 and 0.07967 and 0.01209 and 0.007119 and 0.06666 and 0.04746 and 0.006524 and 0.006085 and 0.07156 and 0.01737 and 0.02558 and -0.00907 and 0.002307 and 0.02027 (2×) and 0.01594 and 0.04935 and 0.06033 and 0.03164 and 0.000895 and 0.0334 and 0.008347 and 0.02877
- Δ persistent current (I40 ms/Ipeak; buffer cf. ExTxA) (hNaV1.3; mean): 0.0265 ± 0.0049 and 0.02645
- nocifensive behaviors, 0-40 min combined (Fig. 3g) ([7]; TMEMCre KO, 0-40 min, individual animals, one line each (n = 16)): 8 and 6 and 329 and 151 and 352 and 36 and 124 and 41 and 45 and 71 and 136 and 66 and 142 and 96
- nocifensive behaviors, 0-40 min combined, mean (Fig. 3g) ([7]; TMEMCre KO, 0-40 min, mean, n = 16): 115.9
- ExTxA-induced pain behaviours (cumulative paw licks and flinches over 40 min) ([7]; i.pl. ExTxA 10 nM, Tmem233Cre KO, mean ± SEM, n = 16): 115.9 ± 25.3
- ExTxA-induced nocifensive behaviors in Tmem233Cre/Cre KO mice ([7]; mouse, in vivo): significantly reduced
- nocifensive behaviors, 0-40 min combined, difference between means (B - A) ± SEM (Fig. 3g) ([7]; mouse, in vivo): -118.4 ± 37.67
- persistent current (I40 ms/Ipeak) ([8]; individual cells): -0.02037 and -0.04756 and 0.0447 and 0.01578 and 0.03746
- Δ persistent current (I40 ms/Ipeak; buffer cf. ExTxA) ([8]; mean): 0.006 ± 0.0175 and 0.006003
- CHO cells persistent current (I40 ms) (hNaV1.7; hNaV1.7 alone, mean ± SEM, n = 6): 0.000 ± 0.002 nA
- Δ persistent current (I40 ms/Ipeak) in CHO hNaV1.7 (hNaV1.7; no β subunit, mean, n = 12): 0.001 ± 0.004 and 0.0009513
- persistent current (I40 ms/Ipeak) (hNaV1.8; individual cells): 0.04156 and 0.003935 and 0.01946 and 0.03094 and 0.03913 and 0.02554
- Δ persistent current (I40 ms/Ipeak; buffer cf. ExTxA) (hNaV1.8; mean): 0.027 ± 0.0057 and 0.02676
